# According to PMC9525273 (Nature Communications, 2022):
# Where “and” joins values, the source holds several entries; their conditions need not be identical. Identical values can stand only once.
# Molecular target: T1, PfATP4^G358S (membranes from Dd2-Polδ-PfATP4^G358S parasites) (Plasmodium falciparum, UniProt A0A143ZZK9, G358S)
# T1 sequence (A0A143ZZK9 1-1264 G358S): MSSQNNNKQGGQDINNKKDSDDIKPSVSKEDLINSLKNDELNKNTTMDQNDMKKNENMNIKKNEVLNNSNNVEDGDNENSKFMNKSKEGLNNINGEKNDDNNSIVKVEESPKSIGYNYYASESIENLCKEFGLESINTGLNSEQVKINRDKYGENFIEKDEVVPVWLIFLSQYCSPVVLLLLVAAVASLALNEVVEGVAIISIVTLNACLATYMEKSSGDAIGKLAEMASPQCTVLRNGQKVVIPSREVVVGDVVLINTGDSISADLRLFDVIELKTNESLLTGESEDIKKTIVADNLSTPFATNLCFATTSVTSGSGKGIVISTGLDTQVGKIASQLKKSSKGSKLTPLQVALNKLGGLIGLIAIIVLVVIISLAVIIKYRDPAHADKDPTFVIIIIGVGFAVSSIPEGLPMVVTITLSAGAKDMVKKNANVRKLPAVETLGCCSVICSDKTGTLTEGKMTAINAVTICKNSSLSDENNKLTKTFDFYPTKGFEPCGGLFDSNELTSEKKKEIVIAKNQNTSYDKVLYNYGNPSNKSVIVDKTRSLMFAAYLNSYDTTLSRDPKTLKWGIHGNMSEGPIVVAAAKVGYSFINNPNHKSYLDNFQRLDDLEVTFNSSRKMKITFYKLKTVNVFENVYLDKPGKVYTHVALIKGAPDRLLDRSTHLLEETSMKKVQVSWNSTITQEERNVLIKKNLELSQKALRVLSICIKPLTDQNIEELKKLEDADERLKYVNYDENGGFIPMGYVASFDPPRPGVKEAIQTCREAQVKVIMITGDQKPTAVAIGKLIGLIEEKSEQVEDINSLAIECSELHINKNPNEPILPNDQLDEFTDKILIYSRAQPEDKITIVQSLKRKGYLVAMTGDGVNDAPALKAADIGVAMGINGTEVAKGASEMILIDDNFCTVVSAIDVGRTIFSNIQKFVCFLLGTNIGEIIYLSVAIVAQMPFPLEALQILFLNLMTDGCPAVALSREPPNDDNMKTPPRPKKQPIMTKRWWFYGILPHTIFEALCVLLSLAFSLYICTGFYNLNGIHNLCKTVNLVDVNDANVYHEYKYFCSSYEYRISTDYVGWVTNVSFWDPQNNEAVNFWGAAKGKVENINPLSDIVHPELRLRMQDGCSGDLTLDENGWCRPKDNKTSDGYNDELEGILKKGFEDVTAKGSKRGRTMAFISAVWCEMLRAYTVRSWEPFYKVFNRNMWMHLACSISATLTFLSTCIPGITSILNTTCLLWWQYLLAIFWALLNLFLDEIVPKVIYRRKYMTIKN
# Experiment: Membrane ATPase assay, ATP4-associated (Na+-dependent) ATPase activity
# Type: biochemical
# Parameters: IC50 for inhibition of ATP4-associated ATPase activity, MEAN / IC50 for inhibition of ATP4-associated ATPase activity: unit: nM
# Conditions: for IC50 for ATP4-associated ATPase activity: membranes from Dd2-Polδ-PfATP4G358S, mean ± SEM; for PfATP4-associated ATPase activity (% of control): Dd2-Polδ-PfATP4G358S
# Description: Membranes from isolated P. falciparum or extracellular T. gondii parasites were prepared by lysing parasites in ice-cold deionized water containing a 1:500 dilution of Protease Inhibitor Cocktail Set III (Merck Millipore), then washing the membrane preparation three times in ice-cold deionized water (with protease inhibitors present for the first two washes)[15]. Protein concentrations in the membrane preparations were measured using a Bradford assay. The PiColorLock Gold Phosphate Detection System (Innova Biosciences) was used to measure the production of Pi from hydrolysis of ATP[15]. Membrane preparations were diluted in either a high Na^+ solution (yielding final conditions in the reactions of 150 mM NaCl, 20 mM KCl, 2 mM MgCl2, 50 mM Tris, pH 7.2) or a Na^+-free solution (yielding final conditions of 150 mM choline chloride, 20 mM KCl, 2 mM MgCl2, 50 mM Tris, pH 7.2) to achieve a total protein concentration of 50 μg/mL. […] The reactions were performed at 37 °C, and were initiated by the addition of 1 mM ATP (Na2ATP۰3H2O; MP Biomedicals) and terminated 10 min later by adding 100 μL of reaction mixture (in duplicate) to 25 μL “Gold mix” in a 96-well plate. […] Background values (averaged from wells containing all components, but to which ATP was not added until after the membrane was exposed to Gold mix) were subtracted from the data. For each treatment, the ATPase activity associated with the (Na^+-dependent) PfATP4 and TgATP4 proteins was calculated by subtracting data obtained in the low Na^+ condition (containing only the 2 mM Na^+ introduced on addition of 1 mM Na2ATP) from that obtained in the high Na^+ condition.
smiles,measurement,setting,value
N#Cc1cc(NC(=O)[C@H]2c3ccccc3C(=O)N(CC(F)(F)F)[C@@H]2c2cccnc2)ccc1F [(+)-SJ733],IC50 for inhibition of ATP4-associated ATPase activity,"Dd2-Polδ-PfATP4G358S membranes, single experiments, source data of Table 1 (nM there)",816 and 877 and 793
same,IC50 for ATP4-associated ATPase activity,,829 ± 25 (3) (P = 5 × 10^−6) nM
N#Cc1cc(NC(=O)[C@H]2c3ccccc3C(=O)N(CC(F)(F)F)[C@@H]2c2cccnc2)ccc1F [(+)SJ733],PfATP4-associated ATPase activity (% of control),"[(+)SJ733] 0.122 nM, MEAN",85.0 % of control
same,PfATP4-associated ATPase activity (% of control),"[(+)SJ733] 0.122 nM, single experiments, 0.000122 µM",115.8 % of control and 74.1 % of control and 65.2 % of control
same,PfATP4-associated ATPase activity (% of control),"[(+)SJ733] 0.244 nM, MEAN",125.3 % of control
same,PfATP4-associated ATPase activity (% of control),"[(+)SJ733] 0.244 nM, single experiments, 0.000244 µM",139.0 % of control and 119.0 % of control and 117.8 % of control
same,PfATP4-associated ATPase activity (% of control),"[(+)SJ733] 0.5 nM, MEAN",90.2 % of control
same,PfATP4-associated ATPase activity (% of control),"[(+)SJ733] 0.5 nM, single experiments, 0.0005 µM",95.6 % of control and 76.4 % of control and 98.6 % of control
same,PfATP4-associated ATPase activity (% of control),"[(+)SJ733] 1.0 nM, MEAN",98.3 % of control
same,PfATP4-associated ATPase activity (% of control),"[(+)SJ733] 2.0 nM, MEAN",109.4 % of control
same,PfATP4-associated ATPase activity (% of control),"[(+)SJ733] 2.0 nM, single experiments, 0.002 µM",114.6 % of control and 135.7 % of control and 77.8 % of control
same,PfATP4-associated ATPase activity (% of control),"[(+)SJ733] 3.9 nM, MEAN",81.9 % of control
same,PfATP4-associated ATPase activity (% of control),"[(+)SJ733] 3.9 nM, single experiments, 0.0039 µM",93.0 % of control and 73.2 % of control and 79.5 % of control
same,PfATP4-associated ATPase activity (% of control),"[(+)SJ733] 7.8 nM, MEAN",84.3 % of control
same,PfATP4-associated ATPase activity (% of control),"[(+)SJ733] 7.8 nM, single experiments, 0.0078 µM",82.0 % of control and 99.5 % of control and 71.2 % of control
same,PfATP4-associated ATPase activity (% of control),"[(+)SJ733] 15.6 nM, MEAN",119.8 % of control
same,PfATP4-associated ATPase activity (% of control),"[(+)SJ733] 15.6 nM, single experiments, 0.0156 µM",88.8 % of control and 152.3 % of control and 118.3 % of control
same,PfATP4-associated ATPase activity (% of control),"[(+)SJ733] 31.3 nM, MEAN",94.2 % of control
same,PfATP4-associated ATPase activity (% of control),"[(+)SJ733] 31.3 nM, single experiments, 0.0313 µM",92.0 % of control and 104.2 % of control and 86.4 % of control
same,PfATP4-associated ATPase activity (% of control),"[(+)SJ733] 62.5 nM, MEAN",103.2 % of control
same,PfATP4-associated ATPase activity (% of control),"[(+)SJ733] 62.5 nM, single experiments, 0.0625 µM",102.4 % of control and 79.6 % of control and 127.6 % of control
same,PfATP4-associated ATPase activity (% of control),"[(+)SJ733] 250 nM, MEAN",82.2 % of control
same,PfATP4-associated ATPase activity (% of control),"[(+)SJ733] 250 nM, single experiments, 0.25 µM",91.0 % of control and 86.1 % of control and 69.4 % of control
same,PfATP4-associated ATPase activity (% of control),"[(+)SJ733] 500 nM, MEAN",53.9 % of control
same,PfATP4-associated ATPase activity (% of control),"[(+)SJ733] 1000 nM, MEAN",56.2 % of control
same,PfATP4-associated ATPase activity (% of control),"[(+)SJ733] 2000 nM, MEAN",20.4 % of control
same,PfATP4-associated ATPase activity (% of control),"[(+)SJ733] 4000 nM, MEAN",-1.2 % of control
same,PfATP4-associated ATPase activity (% of control),"[(+)SJ733] 8000 nM, MEAN",-15.8 % of control
C[C@H]1Cc2c([nH]c3cc(Cl)c(F)cc23)[C@@]2(N1)C(=O)Nc1ccc(Cl)cc12 [Cipargamin],"IC50 for inhibition of ATP4-associated ATPase activity, MEAN","Dd2-Polδ-PfATP4G358S membranes, MEAN, source data of Table 1 (nM there)",99.4
same,IC50 for ATP4-associated ATPase activity,,99 ± 21 (4) (P = 0.004) nM
